The source of these data is PMC9403029, “Identifying Novel Drug Targets by iDTPnd: A Case Study of Kinase Inhibitors” (Genomics, Proteomics & Bioinformatics, 2021).

In general, IC50 refers to the midpoint of a concentration-inhibition curve.

The test system of one data set is CYP2A6. The arrangement: method as in earlier work. Particulars: FDA Orange Books ref 65, 66; cited from earlier work.
The subject of the next data set is CYP2E1. The arrangement: method as in earlier work. Particulars: FDA Orange Books ref 65, 66; cited from earlier work.
A further data set concerns CYP1A2. Also on record: method as in earlier work. Particulars: FDA Orange Books ref 65, 66; cited from earlier work.
The target in the next data set is T1, ERα (Homo sapiens, UniProt P03372).
T1 sequence (P03372 1-595): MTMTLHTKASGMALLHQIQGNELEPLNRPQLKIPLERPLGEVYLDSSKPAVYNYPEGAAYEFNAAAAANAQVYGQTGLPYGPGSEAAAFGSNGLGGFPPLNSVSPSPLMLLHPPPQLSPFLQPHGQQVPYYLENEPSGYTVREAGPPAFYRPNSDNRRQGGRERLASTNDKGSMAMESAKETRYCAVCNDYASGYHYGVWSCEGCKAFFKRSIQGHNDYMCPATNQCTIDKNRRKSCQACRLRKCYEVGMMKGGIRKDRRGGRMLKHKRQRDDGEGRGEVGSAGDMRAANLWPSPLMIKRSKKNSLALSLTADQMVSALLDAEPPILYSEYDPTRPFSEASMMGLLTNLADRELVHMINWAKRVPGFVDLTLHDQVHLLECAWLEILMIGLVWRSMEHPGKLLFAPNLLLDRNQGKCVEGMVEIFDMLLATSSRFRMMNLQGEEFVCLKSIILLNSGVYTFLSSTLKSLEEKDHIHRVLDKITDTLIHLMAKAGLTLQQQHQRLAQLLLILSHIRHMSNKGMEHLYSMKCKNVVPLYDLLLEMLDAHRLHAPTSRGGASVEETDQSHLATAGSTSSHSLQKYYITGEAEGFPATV
Particulars: MST.

`Cc1nc(Nc2ncc(C(=O)Nc3c(C)cccc3Cl)s2)cc(N2CCN(CCO)CC2)n1` [Dasatinib, dasatinib]: the IC50 in the data set with CYP2A6 is 35 µM; in the data set on CYP2E1 it was over 50 µM.

As to `Cc1ccc(Nc2nccc(N(C)c3ccc4c(C)n(C)nc4c3)n2)cc1S(N)(=O)=O` [Pazopanib, pazopanib], in the data set on CYP1A2, the IC50 was 16 µM.

With `CNC(=O)c1cc(Oc2ccc(NC(=O)Nc3ccc(Cl)c(C(F)(F)F)c3)cc2)ccn1` [Sorafenib, sorafenib], the “interaction with ERα at detectable levels” value on ERα is “did not interact”.
